# Source: patent publication US6603060B1, “Method for regulating cell death” (National Institute of Agrobiological Sciences, priority 1998, dated 2003)
# *1 amine or outer side, *2 acyl side, *3 side chain or, on linkers, in order; H or OH if unused. Where a SMILES comes first, the peptide text is derived from it. Bridges are numbered along the chain shown (N, C = ends). Roman numbers before positions name the chains, in order. [ ]: non-standard residue; d: D form. Actinocin(9to1) = Cc1c2oc3c(C)ccc(C(=O)[*:1])c3nc-2c(C(=O)[*:2])c(N)c1=O; NMeV = CN[C@H](C(=O)O)C(C)C; Sar = CNCC(=O)O
# Legend:
# [1] = tested on: TMV-infected NN tobacco leaves; assay: Induction of necrotic lesion formation by protease inhibitors in TMV-inoculated detached leaves, nn tobacco; type: in vivo, N. tabacum cv. Samsun nn; design: key: (−) = Necrotic lesion not induced; (+) = Necrotic lesion induced
# Procedure: (§1) The following reagents were used as inhibitors: APMSF, Aprotinin and 3,4-D as serine protease inhibitors, E-64 as a cysteine protease inhibitor, EDTA as a metalloprotease inhibitor, and leupeptin as a serine/cysteine protease inhibitor. Each inhibitor was prepared as described below.
# (§2) For EDTA (Wako Pure Chemicals. Ind. (Osaka, Japan), an aqueous solution adjusted to pH 8.0 by NaOH was used.
# (§3) For E-64 (Boehringer Mannheim, Germany), a 50 mM solution in methanol/H2O (1:1, v/v) was used as a stock solution and subsequently diluted in water to the concentrations indicated below.
# (§4) For 3,4-D (Boehringer Mannheim, Germany), a 50 mM solution in dimethyl sulfoxide was used as a stock solution and subsequently diluted in water to the concentrations indicated below.
# (§5) Leupeptin, Aprotinin, and APMSP were each used as an aqueous solution.
# (§6) In this example, EDTA was used at concentrations of 1 mM, […] and 50 mM, and other inhibitors were used at concentrations of 0.01 mM, 0.1 mM and 1 mM.
# (§7) Prior to reagent treatment, tobacco leaves were detached, inoculated with TMV (8 μg/ml in a phosphate buffer (pH 7.0)) or mock (buffer alone), and incubated at 30° C. for 40 hr. After the incubation, petioles of the leaves were put into vials containing 0.5 ml of inhibitor solutions. The solution was absorbed through the petioles and sterile water was added to the vials within 1 hr. The treated leaves were then further incubated at 30° C.
# [2] = tested on: TMV-infected NN tobacco leaves; assay: Induction of necrotic lesion formation by protease inhibitors in TMV-inoculated detached leaves, NN tobacco; type: in vivo, N. tabacum cv. Samsun NN; design: key to induction of necrotic lesion formation, Tobacco cv. NN: (−) = Necrotic lesion not induced; (+) = Necrotic lesion induced
# Procedure: as §1, §2, §3, §4, §5, §6, §7
# TMV-infected NN tobacco [3] = settings: AMD and heat (50° C., 2 minutes); cited from earlier work
# TMV-infected NN tobacco [4] = settings: AMD and heat (50° C., 2 minutes), 30° C.; cited from earlier work
# DS9 = DS9 transcription level and protein amount after AMD treatment (northern and western blotting analysis); type: in vivo, NN tobacco
# Procedure: Prior to the treatments, tobacco leaves were detached, inoculated with TMV (10 μg/ml in a phosphate buffer (pH 7.0)) or mock inoculated (buffer alone), and incubated at 30° C. for 40 hr. For reagent treatment, after the incubation, petioles of the leaves were put into vials containing 0.5 ml of an inhibitor solutions containing AMD (Sigma Chemical Co., St. Louis, Mo., USA) as a 10% (v/v) methanol aqueous solution. The solution was absorbed through the petioles, and sterile water was added to the vials within 1 hr. For heat treatment, a TMV-infected NN tobacco was subjected to heat shock by treating at 50° C. for 2 minutes. Each of the treated leaves was then further incubated at 30° C. Northern analysis and Western blot analysis were performed as described in Examples 4 and 6. In addition, those treated with water were used as controls.
# TMV-infected NN tobacco [5] = assay: Induction of HR by EDTA and DCMU treatments, nn tobacco; type: in vivo, N. tabacum cv. Samsun nn; settings: 30° C., EDTA 5 mM, DCMU 100 mM, necrotic lesion, PR-1 expression, salicylic acid
# Procedure: (§8) To perform an inhibitor treatment with NN tobacco and nn tobacco, EDTA, a metalloprotease inhibitor, and DCMU (3-(3,4-dichlorophenyl)-1,1-dimethylurea) (Sigma Chemical Co., St Louis, Mo., USA), an inhibitor of electron transport in a photochemical system II (PSII), were used as described in Example 8. An EDTA solution was prepared as described in Example 8. The DCMU was dissolved in methanol. The concentration of the inhibitors were 5 mM and 100 mM, respectively.
# (§9) After the treatment, leavs were further incubated at 30° C., then examined regarding the followig: formation of a necrotic lesion; expression of PR-1; presence of a marker gene for the HR protein; and accumulation of salicylic acid. For expression of the PR gene, Northern analysis was performed as described in Example 4. Salicylic acid was quantitated as follows.
# (§10) Free salicylic acid was extracted and quantitated as described by Malamy et al. (The Plant Cell, 4, 359 (1992)). HPLC analysis was performed on a μBondasphere, 5-μm C-18 (3.9 mm×15 cm) column maintained at 40° C. Isocratic separation was conducted with 23% (v/v) methanol in 20 mM sodium acetate (pH 5.0). Fluorescence detection was performed at using a Model RF-550A (Shimazu, Japan) at […]. All data were corrected for losses.
# TMV-infected NN tobacco [6] = assay: Induction of HR by EDTA and DCMU treatments, NN tobacco; type: in vivo, N. tabacum cv. Samsun NN; settings: 30° C., EDTA 5 mM, DCMU 100 mM, necrotic lesion, PR-1 expression, salicylic acid
# Procedure: as §8, §9, §10
# [7] = TMV-inoculated leaves at 30° C., EDTA 1 mM, 10 mM and 50 mM, other inhibitors 0.01 mM, 0.1 mM and 1 mM
compound,measurement,setting,value
"O=c1oc(Cl)c(Cl)c2ccccc12 [3,4-D]","induction of necrotic lesion formation, Tobacco cv. nn",[1]; [7],−
same,"induction of necrotic lesion formation, Tobacco cv. NN",[2]; [7],−
"Cc1c2oc3c(C)ccc(C(=O)N[C@@H]4C(=O)N[C@H](C(C)C)C(=O)N5CCC[C@H]5C(=O)N(C)CC(=O)N(C)[C@@H](C(C)C)C(=O)O[C@@H]4C)c3nc-2c(C(=O)N[C@@H]2C(=O)N[C@H](C(C)C)C(=O)N3CCC[C@H]3C(=O)N(C)CC(=O)N(C)[C@@H](C(C)C)C(=O)O[C@@H]2C)c(N)c1=O [AMD, actinomycin D] (I: T[dV]P[Sar][NMeV] / II: T[dV]P[Sar][NMeV]; ester I:1-I:C, II:1-II:C; linker I:N-II:N via Actinocin(9to1))","HR against TMV infection, nn tobacco",TMV-infected NN tobacco [3],the HR was also induced
same,"HR against TMV infection, NN tobacco",TMV-infected NN tobacco [4],the HR is induced
same,DS9 transcription level,"DS9; TMV-infected NN tobacco, 30° C., northern analysis",decrease significantly
same,DS9 protein amount,"DS9; TMV-infected NN tobacco, 30° C., western blot",decrease significantly
same,"amount of the DS9 protein, mock infected leaf","DS9; leaf subjected to mock infection, treated with AMD and heat shock (HS)",remarkably decreased
N=C(N)c1ccc(CS(=O)(=O)F)cc1 [APMSF],"induction of necrotic lesion formation, Tobacco cv. nn",[1]; [7],−
same,"induction of necrotic lesion formation, Tobacco cv. NN",[2]; [7],−
"CN(C)C(=O)Nc1ccc(Cl)c(Cl)c1 [DCMU, 3-(3,4-dichlorophenyl)-1,1-dimethylurea]",induction of the HR in nn tobacco,TMV-infected NN tobacco [5],induced the HR
same,induction of the HR in NN tobacco,TMV-infected NN tobacco [6],induced the HR
CC(C)C[C@H](NC(=O)[C@H]1O[C@@H]1C(=O)O)C(=O)NCCCCN=C(N)N [E-64],"induction of necrotic lesion formation, Tobacco cv. nn",[1]; [7],−
same,"induction of necrotic lesion formation, Tobacco cv. NN",[2]; [7],−
O=C(O)CN(CCN(CC(=O)O)CC(=O)O)CC(=O)O [EDTA],"induction of necrotic lesion formation, Tobacco cv. nn",[1]; in vivo,+
same,induction of the HR in nn tobacco,TMV-infected NN tobacco [5],induced the HR
same,induction of the HR in NN tobacco,TMV-infected NN tobacco [6],induced the HR
same,"induction of necrotic lesion formation, Tobacco cv. NN",[2]; in vivo,+
same,necrotic lesion in NN tobacco,[2]; in vivo,necrotic lesion was induced
CC(=O)N[C@@H](CC(C)C)C(=O)N[C@@H](CC(C)C)C(=O)N[C@H](C=O)CCCNC(=N)N [leupeptin],"induction of necrotic lesion formation, Tobacco cv. nn",[1]; [7],−
same,"induction of necrotic lesion formation, Tobacco cv. NN",[2]; [7],−
Aprotinin,"induction of necrotic lesion formation, Tobacco cv. nn",[1]; [7],−
same,"induction of necrotic lesion formation, Tobacco cv. NN",[2]; [7],−
